Columns and labels:
[1] = target: T1, SIRT7 (recombinant human SIRT7, non-tagged) (Homo sapiens, UniProt Q9NRC8); assay: fluorogenic deacylase assay; type: biochemical
T1 sequence (Q9NRC8 1-400): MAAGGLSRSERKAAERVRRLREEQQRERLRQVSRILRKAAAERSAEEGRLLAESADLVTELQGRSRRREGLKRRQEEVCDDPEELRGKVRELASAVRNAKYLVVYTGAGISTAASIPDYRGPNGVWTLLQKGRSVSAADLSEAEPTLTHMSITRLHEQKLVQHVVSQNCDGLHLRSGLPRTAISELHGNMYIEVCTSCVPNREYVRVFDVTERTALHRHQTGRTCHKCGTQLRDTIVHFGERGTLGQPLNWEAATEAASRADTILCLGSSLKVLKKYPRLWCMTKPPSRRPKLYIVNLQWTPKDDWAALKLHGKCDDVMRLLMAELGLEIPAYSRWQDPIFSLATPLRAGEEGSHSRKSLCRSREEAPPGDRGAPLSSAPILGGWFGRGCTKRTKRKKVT

[2] = target: T1, SIRT7 (recombinant human SIRT7, non-tagged); assay: fluorogenic deacylase assay; type: biochemical; settings: read-out: % inhibition at 100 μM

SMILES | IC50 [1] [µM] | inhibition at 100 µM [2] [%]
CCCCCCCCCCCCNC(=O)CCCCC[C@H](NC(=O)OCc1ccccc1)C(=O)N[C@H](C(=O)N[C@@H](CCC(=O)O)C(N)=O)C(C)C [compound 33, inverse amide 33] | 44 | 
CCCCCCCCCCCCNC(=S)CCCCC[C@H](NC(=O)OCc1ccccc1)C(=O)N[C@H](C(=O)N[C@@H](CCC(=O)O)C(N)=O)C(C)C [compound 34, inverse thioamide 34] | 34 | 
CCCCCCCCCCCCNC(=S)NCCCC[C@H](NC(=O)OCc1ccccc1)C(=O)N[C@@H](C)C(=O)N[C@@H](CCCNC(=N)N)C(N)=O [compound 3] |  | 26
